The results in this text go back to patent US20240196899A1, “PESTICIDAL MIXTURES” (priority 2021, published 2024).

SMILES strings stand for the structures.

For one assay, the system named is M. persicae. Put plainly: Insecticidal % control against M. persicae, Colby synergy. It counts as in vivo, Myzus persicae. The following applies: 2 ppm. How it is done: (§1) Colby's method is used to determine if synergy exists for a combination of active ingredients. According to Colby, the expected action (E) of active ingredients A+B is:
(§2) [formula] • where E=expected efficacy, A and B=the efficacy of two active ingredients A and B at a given dose.
(§3) When the percentage of control observed (O) for the combination is greater than the expected (E) percentage, there is a synergistic effect. The synergism ratio (R) is calculated as the ratio between the […].
(§4) The insecticidal compounds A (Novaluron) and B (mix partner) are formulated as equivalent suspension concentrates to eliminate the effects of differing formulation inerts on biological activity. Efficacy of the insecticidal compositions is evaluated with reference to a scale of 0% to 100% in comparison with untreated control plots. 0 means no damage and 100 means complete destruction of the harmful pests.
(§5) Likewise following experimentations were done on other mixtures of novaluron on various pests, the result of which are summarized in the below tables: […]

The subject of a further assay is B. tabaci. Put plainly: Insecticidal % control against B. tabaci, Colby synergy. It counts as in vivo, Bemisia tabaci. To be noted: Table 7, 72 hours after treatment. How it is done: as §1, §2, §3, §4, §5
A further assay deals with S. frugiperda. Put plainly: Insecticidal % control against S. frugiperda, Colby synergy. Type of assay: in vivo, Spodoptera frugiperda. To be noted: Table 9, 120 hours after treatment. How it is done:
as §1, §2, §3, §4, §5

The next assay deals with T. urticae. Put plainly: Insecticidal % control against T. urticae, Colby synergy. It counts as in vivo, Tetranychus urticae. On the procedure:
as §1, §2, §3, §4, §5

Assay [1] concerns Cotton Leafworm, S. littoralis. Put plainly: Insecticidal % control against Cotton Leafworm, S. littoralis, Colby synergy. The following applies: 72 hours after treatment. It counts as in vivo, Spodoptera littoralis. On the procedure:
as §1, §2, §3, §4, §5

The test system of the next assay is F. occidentalis. Put plainly: Insecticidal % control against F. occidentalis, Colby synergy. Type of assay: in vivo, Frankliniella occidentalis. How it is done:
as §1, §2, §3, §4, §5

Another assay deals with H. halys. Put plainly: Insecticidal % control against H. halys, Colby synergy. Type of assay: in vivo, Halyomorpha halys. The following applies: Table 20 B; 144 hours after treatment; 5 ppm. How it is done: as §1, §2, §3, §4, §5
For a further assay, the system named is A. gossypii. Put plainly: Insecticidal % control against A. gossypii, Colby synergy. To be noted: Table 18 A; 96 hours after treatment; 100 ppm. It counts as in vivo, Aphis gossypii. On the procedure:
as §1, §2, §3, §4, §5

`COP(=O)(NC(C)=O)SC` (stereo not shown) [Acephate]: the “Observed % control (O)” value in the assay on M. persicae (Table 17 A, 72 hours after treatment) amounted to 66%; with M. persicae (Table 17 B, 7 days after treatment), 75.0%.

As for `C[C@]1(COC(=O)C2CC2)[C@@H]2C[C@H](O)[C@@]3(C)Oc4cc(-c5cccnc5)oc(=O)c4[C@H](O)[C@@H]3[C@@]2(C)CC[C@@H]1OC(=O)C1CC1` [Afidopyropen], the “Observed % control (O)” value in the assay with B. tabaci (7 ppm) is 35.1%; with B. tabaci (35 ppm), 49.8%.

Regarding `CN(C(=O)c1ccccc1)c1cccc(C(=O)Nc2c(Br)cc(C(F)(C(F)(F)F)C(F)(F)F)cc2C(F)(F)F)c1F` [Broflanilide], the entries for the “Observed % control (O)” value in the assay with S. frugiperda (0.001 ppm) and with S. frugiperda (0.01 ppm) were 10% and 20%, respectively.

Take `CCOCn1c(-c2ccc(Cl)cc2)c(C#N)c(Br)c1C(F)(F)F` [Chlorfenapyr]: the “Observed % control (O)” value was 64% in the assay with T. urticae (Table 14 A, 48 hours after treatment, 2.4 ppm); 79% in the assay with T. urticae (Table 14 A, 48 hours after treatment, 24 ppm); 78% with T. urticae (Table 14 B, 72 hours after treatment, 2.4 ppm); 86% in the assay on T. urticae (Table 14 B, 72 hours after treatment, 24 ppm); 86% with T. urticae (Table 14 C, 7 days after treatment, 2.4 ppm); 94% with T. urticae (Table 14 C, 7 days after treatment, 24 ppm).

As to `CN/C(=N/CC1CCOC1)N[N+](=O)[O-]` (stereo not shown) [Dinotefuran], the “Observed % control (O)” value in assay [1] (Table 16, 0.04 ppm) came to 25%.

Regarding `N#Cc1nn(-c2c(Cl)cc(C(F)(F)F)cc2Cl)c(N)c1[S+]([O-])C(F)(F)F` (stereo not shown) [Fipronil], the “Observed % control (O)” value with F. occidentalis (Table 20 C, 48 hours after treatment, 1 ppm) was found to be 66.0%; in the assay with F. occidentalis (Table 20 D, 72 hours after treatment, 1 ppm), 70.0%; in the assay on F. occidentalis (Table 20 D, 72 hours after treatment, 100 ppm), 90.0%; with F. occidentalis (Table 20 E, 7 days after treatment, 1 ppm), 84.0%; in assay [1] (Table 20 A, 0.002 ppm), 0%; in assay [1] (Table 20 A, 0.02 ppm) it was 5%. For the same molecule, the “Observed % control (O)” value in the assay with H. halys amounted to 87.5%.

As to `O=C(N=c1ccccn1Cc1ccc(Cl)nc1)C(F)(F)F` [Flupyrimin], the “Observed % control (O)” value in assay [1] (Table 12, 12 ppm) turned out to be 0%.

For the molecule `CCN1OCC(NC(=O)c2ccc(C3=NOC(c4cc(Cl)c(F)c(Cl)c4)(C(F)(F)F)C3)cc2C)C1=O` (stereo not shown) [Isocycloseram], in assay [1] (Table 8, 12 ppm), the “Observed % control (O)” value stood at 12.5%.

As for `CCOC(=O)CC(SP(=S)(OC)OC)C(=O)OCC` (stereo not shown) [Malathion], the “Observed % control (O)” value in the assay with F. occidentalis (Table 18 B, 72 hours after treatment, 5 ppm) is 6.0%; with F. occidentalis (Table 18 B, 72 hours after treatment, 500 ppm), 80.0%; with A. gossypii it was 81.7%.
